Test results taken from patent EP1145714A1, “DRUGS” (Takeda Chemical Industries, Ltd., priority 1998, dated 2000).

Columns and labels:
[1] = tested on: vomiting induced by morphine in ferrets; test: Vomiting induced by morphine in ferrets, oral dosing; assay type: in vivo; conditions: 3 mg/kg p.o., morphine 0.3 mg/kg subcutaneous
Description: Male 6 or 7 ferrets (1.6 to 2.0 kg) per one group were used. Morphine was subcutaneously administered at0.3 mg/0.3 ml/kg. 2.5 hours before morphine dosing, a small amount of a feed was given to the animals. 30 minutes thereafter, predetermined doses of the compound No. 3 were orally given. To a control animal group under no fasting was orally given a predetermined volume of 0.5 % methyl cellulose solution. A predetermined volume of ondansetron was orally given to the animals under fasting. To a control animal group of ondansetron under fasting was orally given a predetermined volume of physiological saline. The frequency of vomiting was counted up to 30 minutes after morphine dosing. The compound No. 3 was suspended in 0.5 % methyl cellulose solution and was then orally dosed at a ratio of 1 ml per 1 kg body weight. An injection of ondansetron at a concentration of 0.2 w/v % was orally dosed. Additionally, 0.5 % methyl cellulose solution was orally given at a ratio of 1 ml per 1 kg body weight, while physiological saline was orally given at a ratio of 1 ml per 1 kg body weight. The data relating to the frequency of vomiting, the latency and the time period from the occurrence of vomiting to the termination thereof were statistically analyzed by the Dunnett test or t test, with reference to the difference from the control group.
(§1) The retching suppression ratio and vomiting suppression ratio were calculated by the following formula. [Frequency of retching or vomiting in control] - [Frequency of retching or vomiting in animals dosed with compound No. 3] / [Frequency of retching or vomiting in control] x 100 (%) [formula]

[2] = tested on: acute and delayed vomiting induced by cisplatin in ferrets; test: Acute and delayed vomiting induced by cisplatin in ferrets, oral dosing once or twice daily; assay type: in vivo; conditions: cisplatin 5 mg/kg i.p.; for Duration (in hour; mean ± SD) / Latency (in hour; mean ± SD) / On day 0 (0-24 hours): frequency of retching and vomiting (mean ± SD) / On day 0 (0-24 hours): number of ferrets with vomiting/ number of tested ferrets / On days 1-2(24-48 hours): frequency of retching and vomiting (mean ± SD) / On days 1-2(24-48 hours): number of ferrets with vomiting/ number of tested ferrets / Total frequency of retching and vomiting (on days 0~2; 0-72 hours): twice daily, under fasting
Description: Male 4 to 6 ferrets (1.2 to 2.2 kg) per one group were used. Cisplatin was intraperitoneally given at 5 mg/5ml/kg. 30 minutes prior to cisplatin administration and 24 and 48 hours after cisplatin administration, predetermined doses of the compound No. 3 were orally given in case of dosing once daily. 30 minutes prior to cisplatin administration and 12, 24, 36, 48 and 60 hours after cisplatin administration, predetermined doses of the compound No. 3 were orally given in case of dosing twice daily. 30 minutes prior to the dosing of the compound No. 3, a small amount of a feed was given to the animals in any of the cases. Similarly, a predetermined volume of 0.5 % methyl cellulose solution was similarly given orally to a control animal group under no fasting. A predetermined dose of ondansetron was orally given to the animals under fasting. To a control animal group of ondansetron, a predetermined volume of physiological saline was orally given to the animals under fasting. The frequency of vomiting was counted in number, up to 72 hours after cisplatin administration.
The compound No. 3 was suspended in 0.5 % methyl cellulose solution, for oral dosing at predetermined doses at a ratio of 1 ml per 1 kg body weight. An injection of ondansetron at 0.2 w/v % concentration was orally given at a predetermined volume. Additionally, 0.5 % methyl cellulose solution was orally given at a ratio of 1 ml per 1 kg body weight, while physiological saline was orally given at a ratio of 0.5 to 1.5 ml per 1 kg body weight. The data relating to the frequency of vomiting, the time period (latency) until first vomiting and the time period from the occurrence of vomiting to the termination thereof were statistically analyzed by the Dunnett test, with reference to the difference from the control group.
as §1, with “The acute vomiting suppression ratio, delayed vomiting” for “The retching”, “and total” for “and”

Cc1nccn1CC1CCc2c(c3ccccc3n2C)C1=O (stereo not shown) [Ondansetron, ondansetron, reference compound] was tested, and the “Acute vomiting suppression ratio” value [1] was 0 % NS, the “Effect on retching and vomiting (in words)” value [1] was “did not suppress” and the Pseudo-vomiting suppression ratio [1] was 12 % NS. For the same compound, the “A: Number of ferrets with retching/number of tested ferrets” value ([1]; under fasting, 30 minutes) was 5/6, the “B: Frequency of retching (mean ± SD)” value ([1]; under fasting, 30 minutes) was 17.2 ± 6.4 and the “C: Time period until first retching (minute; mean ± SD)” value ([1]; under fasting, 30 minutes) was 8.8 ± 4.3 min. For the same compound, the “D: Duration of retching (minute; mean ± SD)” value ([1]; under fasting, 30 minutes) was 5.0 ± 2.3 min, the “E: Number of ferrets with vomiting/number of tested ferrets” value ([1]; under fasting, 30 minutes) was 5/6 and the “F: Frequency of vomiting (mean ± SD)” value ([1]; under fasting, 30 minutes) was 2.3 ± 1.2. The “G: Time period until first vomiting (minute; mean ± SD)” value ([1]; under fasting, 30 minutes) was 9.2 ± 4.2 min, the “H: Duration of vomiting (minute; mean ± SD)” value ([1]; under fasting, 30 minutes) was 3.7 ± 2.6 min and the “Acute vomiting suppression ratio (0 to 24 hours after cisplatin dosing)” value ([2]; 1 mg/kg p.o. twice daily) was 0 % NS. The “Delayed vomiting suppression ratio (24 to 72 hours after cisplatin dosing)” value ([2]; 1 mg/kg p.o. twice daily) was 0 % NS, the “Total vomiting suppression ratio (0 to 72 hours after cisplatin dosing)” value ([2]; 1 mg/kg p.o. twice daily) was 0 % NS and the “Duration (in hour; mean ± SD)” value ([2]; 1 mg/kg × 2 p.o.) was 56.5 ± 2.6 h. For the same compound, the “Latency (in hour; mean ± SD)” value ([2]; 1 mg/kg × 2 p.o.) was 8.7 ± 0.9 h, the “On day 0 (0-24 hours): frequency of retching and vomiting (mean ± SD)” value ([2]; 1 mg/kg × 2 p.o.) was 70.2 ± 25.2 and the “On day 0 (0-24 hours): number of ferrets with vomiting/ number of tested ferrets” value ([2]; 1 mg/kg × 2 p.o.) was 5/5. The “On days 1-2(24-48 hours): frequency of retching and vomiting (mean ± SD)” value ([2]; 1 mg/kg × 2 p.o.) was 327.4 ± 88.8, the “On days 1-2(24-48 hours): number of ferrets with vomiting/ number of tested ferrets” value ([2]; 1 mg/kg × 2 p.o.) was 5/5 and the “Total frequency of retching and vomiting (on days 0~2; 0-72 hours)” value ([2]; 1 mg/kg × 2 p.o.) was 397.6 ± 72.0. For the same compound, the “Acute vomiting suppression ratio (0 to 24 hours after cisplatin dosing)” value ([2]; 3 mg/kg p.o. twice daily) was 58 % NS, the “Delayed vomiting suppression ratio (24 to 72 hours after cisplatin dosing)” value ([2]; 3 mg/kg p.o. twice daily) was 32 % NS and the “Total vomiting suppression ratio (0 to 72 hours after cisplatin dosing)” value ([2]; 3 mg/kg p.o. twice daily) was 36 % NS. The “Duration (in hour; mean ± SD)” value ([2]; 3 mg/kg × 2 p.o.) was 44.2 ± 8.4 h, the “Latency (in hour; mean ± SD)” value ([2]; 3 mg/kg × 2 p.o.) was 15.7 ± 5.6 h and the “On day 0 (0-24 hours): frequency of retching and vomiting (mean ± SD)” value ([2]; 3 mg/kg × 2 p.o.) was 27.8 ± 13.1. For the same compound, the “On day 0 (0-24 hours): number of ferrets with vomiting/ number of tested ferrets” value ([2]; 3 mg/kg × 2 p.o.) was 4/6, the “On days 1-2(24-48 hours): frequency of retching and vomiting (mean ± SD)” value ([2]; 3 mg/kg × 2 p.o.) was 221.7 ± 62.9 and the “On days 1-2(24-48 hours): number of ferrets with vomiting/ number of tested ferrets” value ([2]; 3 mg/kg × 2 p.o.) was 6/6. The “Total frequency of retching and vomiting (on days 0~2; 0-72 hours)” value ([2]; 3 mg/kg × 2 p.o.) was 249.5 ± 74.2.
